Marks after values point to notes of the source that are not given here.
Tests used:
Parameters in all cases: species or system Sprague–Dawley rats
[1] = OLINDA/EXM predicted clinical doses: adult male phantom, non-normalised τ, FBP; settings: rat, in vivo
Method: (§1) PET studies were reconstructed using filtered-back projection (FBP) and Mediso’s iterative Tera-Tomo 3D reconstruction algorithm with the following settings: 4 iterations, 6 subsets, full detector model, normal regularization, spike filter on, voxel size 0.4 mm and 400‒600 keV energy window. PET data were corrected for randoms, scatter and attenuation. Time-activity curves for each source organ, whole-body and remainder of the body were plotted. […] Residence times (τ) were determined for each radiotracer in source organs, whole-body and remaining (any activity assigned to the whole-body but not assigned to a source organ). Each preclinical source organ’s τ was determined by calculating the area under its respective time-activity curve (activity normalised to the percentage maximum injected dose as a function of time) using the trapezoid method. […] From each individual animal, eight dosimetry models were constructed from all possible combinations of image reconstruction method (FBP or iterative), τ (non-normalised or normalised to human organ masses), and sex of phantom (male or female).

[2] = Residence times in rat source organs from whole-body PET, FBP reconstruction; settings: in vivo, iv
Method: as §1, with “Immediately after radiotracer administration, a 240 min emission scan using 4 beds (50% overlap) was obtained using 3-dimensional 1:5 mode and re-binned as follows: 7 × 1 min, 2 × 5 min and 4 × 10 min. Throughout the PET/CT scanning session, animal temperature and respiration rate were monitored and controlled. PET studies” for “PET studies”, “and attenuation. […] Then, PMOD’s contours interpolation tool was used to interpolate ROIs for each organ into a corresponding volume-of-interest (VOI). A static cuboidal VOI was also drawn to include the animal whole-body. Time-activity curves” for “and attenuation. Time-activity curves”

[3] = OLINDA/EXM predicted clinical doses: adult female phantom, non-normalised τ, iterative; settings: rat, in vivo
Method: as §1, with “female). Supplementary table 10. Predicted clinical absorbed organ doses and whole-body effective doses of PET radiotracers using non-normalised (preclinical) adult female source organ residence times from iterative reconstructions.” for “female).”

Molecule: O=C[C@H]([18F])[C@@H](O)[C@H](O)[C@H](O)CO [FDG, 2-deoxy-2-[^18F]fluoro-D-glucose]
- Effective Dose (mSv/MBq), Average [1]: 5.79E-02 mSv/MBq
- Estimated Absorbed Dose of Organ, Average: Adrenals [1]: 1.22E-02 mGy/MBq
- Estimated Absorbed Dose of Organ, Average: Brain [1]: 4.36E-03 mGy/MBq
- Estimated Absorbed Dose of Organ, Average: Breasts [1]: 8.62E-03 mGy/MBq
- Estimated Absorbed Dose of Organ, Average: Gallbladder Wall [1]: 1.32E-02 mGy/MBq
- Estimated Absorbed Dose of Organ, Average: Heart Wall [1]: 1.51E-02 mGy/MBq
- Estimated Absorbed Dose of Organ, Average: Kidneys [1]: 2.01E-02§ mGy/MBq
- Estimated Absorbed Dose of Organ, Average: LLI Wall [1]: 2.39E-01† mGy/MBq
- Estimated Absorbed Dose of Organ, Average: Liver [1]: 8.09E-03 mGy/MBq
- Estimated Absorbed Dose of Organ, Average: Lungs [1]: 8.07E-03 mGy/MBq
- Estimated Absorbed Dose of Organ, Average: Muscle [1]: 1.35E-02 mGy/MBq
- Estimated Absorbed Dose of Organ, Average: Osteogenic Cells [1]: 1.76E-02 mGy/MBq
- Estimated Absorbed Dose of Organ, Average: Pancreas [1]: 1.32E-02 mGy/MBq
- Estimated Absorbed Dose of Organ, Average: Red Marrow [1]: 1.32E-02 mGy/MBq
- Estimated Absorbed Dose of Organ, Average: Skin [1]: 9.20E-03 mGy/MBq
- Estimated Absorbed Dose of Organ, Average: Small Intestine [1]: 2.21E-02 mGy/MBq
- Estimated Absorbed Dose of Organ, Average: Spleen [1]: 1.23E-02 mGy/MBq
- Estimated Absorbed Dose of Organ, Average: Stomach Wall [1]: 1.34E-02 mGy/MBq
- Estimated Absorbed Dose of Organ, Average: Testes [1]: 1.76E-02 mGy/MBq
- Estimated Absorbed Dose of Organ, Average: Thymus [1]: 1.07E-02 mGy/MBq
- Estimated Absorbed Dose of Organ, Average: Thyroid [1]: 1.05E-02 mGy/MBq
- Estimated Absorbed Dose of Organ, Average: Total Body [1]: 1.38E-02 mGy/MBq
- Estimated Absorbed Dose of Organ, Average: ULI Wall [1]: 1.76E-02 mGy/MBq
- Estimated Absorbed Dose of Organ, Average: Urinary Bladder Wall [1]: 3.23E-01‡ mGy/MBq
- Residence Time (h), Average: Brain [2]: 0.0124 h
- Residence Time (h), Average: Heart [2]: 0.0158 h
- Residence Time (h), Average: Intestine [2]: 0.372 h
- Residence Time (h), Average: Kidneys [2]: 0.0215 h
- Residence Time (h), Average: Liver [2]: 0.0249 h
- Residence Time (h), Average: Lungs [2]: 0.0155 h
- Residence Time (h), Average: Remaining [2]: 2.1 h
- Residence Time (h), Average: Urinary Bladder [2]: 0.65 h
- Effective Dose [3]: 7.95E-02 mSv/MBq
- Estimated Absorbed Dose of Organ, Adrenals [3]: 1.20E-02 mGy/MBq
- Estimated Absorbed Dose of Organ, Brain [3]: 6.80E-03 mGy/MBq
- Estimated Absorbed Dose of Organ, Breasts [3]: 7.63E-03 mGy/MBq
- Estimated Absorbed Dose of Organ, Gallbladder Wall [3]: 1.27E-02 mGy/MBq
- Estimated Absorbed Dose of Organ, Heart Wall [3]: 3.36E-02 mGy/MBq
- Estimated Absorbed Dose of Organ, Kidneys [3]: 3.95E-02 mGy/MBq
- Estimated Absorbed Dose of Organ, LLI Wall [3]: 2.13E-01 ‡ mGy/MBq
- Estimated Absorbed Dose of Organ, Liver [3]: 1.20E-02 mGy/MBq
- Estimated Absorbed Dose of Organ, Lungs [3]: 8.85E-03 mGy/MBq
- Estimated Absorbed Dose of Organ, Muscle [3]: 1.42E-02 mGy/MBq
- Estimated Absorbed Dose of Organ, Osteogenic Cells [3]: 1.64E-02 mGy/MBq
- Estimated Absorbed Dose of Organ, Ovaries [3]: 4.21E-02 mGy/MBq
- Estimated Absorbed Dose of Organ, Pancreas [3]: 1.23E-02 mGy/MBq
- Estimated Absorbed Dose of Organ, Red Marrow [3]: 1.35E-02 mGy/MBq
- Estimated Absorbed Dose of Organ, Skin [3]: 8.59E-03 mGy/MBq
- Estimated Absorbed Dose of Organ, Small Intestine [3]: 2.39E-02 mGy/MBq
- Estimated Absorbed Dose of Organ, Spleen [3]: 1.16E-02 mGy/MBq
- Estimated Absorbed Dose of Organ, Stomach Wall [3]: 1.21E-02 mGy/MBq
- Estimated Absorbed Dose of Organ, Thymus [3]: 9.63E-03 mGy/MBq
- Estimated Absorbed Dose of Organ, Thyroid [3]: 8.07E-03 mGy/MBq
- Estimated Absorbed Dose of Organ, ULI Wall [3]: 1.93E-02 mGy/MBq
- Estimated Absorbed Dose of Organ, Urinary Bladder Wall [3]: 7.75E-01 † mGy/MBq
- Estimated Absorbed Dose of Organ, Uterus [3]: 5.40E-02 § mGy/MBq
- Estimated Absorbed Dose, Total Body [3]: 1.49E-02 mGy/MBq

Molecule: NOTA-RGDfK [existing Al^18F-labelled NOTA-RGDfK peptide PET radiotracer; precursor NOTA-RGDfK (1)]
- Effective Dose (mSv/MBq), Average [1]: 5.11E-02 mSv/MBq
- Estimated Absorbed Dose of Organ, Average: Adrenals [1]: 1.14E-02 mGy/MBq
- Estimated Absorbed Dose of Organ, Average: Brain [1]: 2.47E-03 mGy/MBq
- Estimated Absorbed Dose of Organ, Average: Breasts [1]: 7.90E-03 mGy/MBq
- Estimated Absorbed Dose of Organ, Average: Gallbladder Wall [1]: 1.24E-02 mGy/MBq
- Estimated Absorbed Dose of Organ, Average: Heart Wall [1]: 7.37E-03 mGy/MBq
- Estimated Absorbed Dose of Organ, Average: Kidneys [1]: 2.41E-02§ mGy/MBq
- Estimated Absorbed Dose of Organ, Average: LLI Wall [1]: 1.46E-01 ‡ mGy/MBq
- Estimated Absorbed Dose of Organ, Average: Liver [1]: 7.25E-03 mGy/MBq
- Estimated Absorbed Dose of Organ, Average: Lungs [1]: 6.07E-03 mGy/MBq
- Estimated Absorbed Dose of Organ, Average: Muscle [1]: 1.31E-02 mGy/MBq
- Estimated Absorbed Dose of Organ, Average: Osteogenic Cells [1]: 1.64E-02 mGy/MBq
- Estimated Absorbed Dose of Organ, Average: Pancreas [1]: 1.22E-02 mGy/MBq
- Estimated Absorbed Dose of Organ, Average: Red Marrow [1]: 1.21E-02 mGy/MBq
- Estimated Absorbed Dose of Organ, Average: Skin [1]: 8.75E-03 mGy/MBq
- Estimated Absorbed Dose of Organ, Average: Small Intestine [1]: 1.97E-02 mGy/MBq
- Estimated Absorbed Dose of Organ, Average: Spleen [1]: 1.15E-02 mGy/MBq
- Estimated Absorbed Dose of Organ, Average: Stomach Wall [1]: 1.21E-02 mGy/MBq
- Estimated Absorbed Dose of Organ, Average: Testes [1]: 1.85E-02 mGy/MBq
- Estimated Absorbed Dose of Organ, Average: Thymus [1]: 9.71E-03 mGy/MBq
- Estimated Absorbed Dose of Organ, Average: Thyroid [1]: 9.77E-03 mGy/MBq
- Estimated Absorbed Dose of Organ, Average: Total Body [1]: 1.30E-02 mGy/MBq
- Estimated Absorbed Dose of Organ, Average: ULI Wall [1]: 1.65E-02 mGy/MBq
- Estimated Absorbed Dose of Organ, Average: Urinary Bladder Wall [1]: 4.35E-01 † mGy/MBq
- Residence Time (h), Average: Brain [2]: 0.00193 h
- Residence Time (h), Average: Heart [2]: 0.00279 h
- Residence Time (h), Average: Intestine [2]: 0.209 h
- Residence Time (h), Average: Kidneys [2]: 0.029 h
- Residence Time (h), Average: Liver [2]: 0.0207 h
- Residence Time (h), Average: Lungs [2]: 0.00664 h
- Residence Time (h), Average: Remaining [2]: 1.96 h
- Residence Time (h), Average: Urinary Bladder [2]: 0.892 h
- Effective Dose [3]: 8.22E-02 mSv/MBq
- Estimated Absorbed Dose of Organ, Adrenals [3]: 9.77E-03 mGy/MBq
- Estimated Absorbed Dose of Organ, Brain [3]: 1.87E-03 mGy/MBq
- Estimated Absorbed Dose of Organ, Breasts [3]: 5.49E-03 mGy/MBq
- Estimated Absorbed Dose of Organ, Gallbladder Wall [3]: 1.07E-02 mGy/MBq
- Estimated Absorbed Dose of Organ, Heart Wall [3]: 7.79E-03 mGy/MBq
- Estimated Absorbed Dose of Organ, Kidneys [3]: 4.85E-02§ mGy/MBq
- Estimated Absorbed Dose of Organ, LLI Wall [3]: 1.68E-01 ‡ mGy/MBq
- Estimated Absorbed Dose of Organ, Liver [3]: 1.06E-02 mGy/MBq
- Estimated Absorbed Dose of Organ, Lungs [3]: 5.19E-03 mGy/MBq
- Estimated Absorbed Dose of Organ, Muscle [3]: 1.30E-02 mGy/MBq
- Estimated Absorbed Dose of Organ, Osteogenic Cells [3]: 1.30E-02 mGy/MBq
- Estimated Absorbed Dose of Organ, Ovaries [3]: 4.12E-02 mGy/MBq
- Estimated Absorbed Dose of Organ, Pancreas [3]: 9.72E-03 mGy/MBq
- Estimated Absorbed Dose of Organ, Red Marrow [3]: 1.18E-02 mGy/MBq
- Estimated Absorbed Dose of Organ, Skin [3]: 7.18E-03 mGy/MBq
- Estimated Absorbed Dose of Organ, Small Intestine [3]: 2.22E-02 mGy/MBq
- Estimated Absorbed Dose of Organ, Spleen [3]: 9.42E-03 mGy/MBq
- Estimated Absorbed Dose of Organ, Stomach Wall [3]: 9.44E-03 mGy/MBq
- Estimated Absorbed Dose of Organ, Thymus [3]: 6.68E-03 mGy/MBq
- Estimated Absorbed Dose of Organ, Thyroid [3]: 5.90E-03 mGy/MBq
- Estimated Absorbed Dose of Organ, ULI Wall [3]: 1.78E-02 mGy/MBq
- Estimated Absorbed Dose of Organ, Urinary Bladder Wall [3]: 9.66E-01 † mGy/MBq
- Estimated Absorbed Dose of Organ, Uterus [3]: 6.04E-02 mGy/MBq
- Estimated Absorbed Dose, Total Body [3]: 1.33E-02 mGy/MBq

— publication PMC7525662, “Preclinical dosimetry models and the prediction of clinical doses of novel positron emission tomography radiotracers” (Scientific Reports, 2020)
